Data taken from patent US11371055B2, “Herbicide resistance genes” (CORTEVA AGRISCIENCE LLC, priority 2005, dated 2022).

What was measured:
[1] = tested on: PAT/Cry1F-transformed Arabidopsis (auxin-sensitive transformed control); experiment: T1 Arabidopsis postemergence herbicide dose response, transformed control; format: in vivo, Arabidopsis thaliana
Experimental: Seven days after planting (DAP) and again 11 DAP, T1 plants (cotyledon and 2-4-lf stage, respectively) were sprayed with a 0.2% solution of Liberty herbicide (200 g ai/L glufosinate, Bayer Crop Sciences, Kansas City, Mo.) at a spray volume of 10 ml/tray (703 L/ha) using a DeVilbiss compressed air spray tip to deliver an effective rate of 280 g ai/ha glufosinate per application. Survivors (plants actively growing) were identified 4-7 days after the final spraying and transplanted individually into 3-inch pots prepared with potting media (Metro Mix 360). Transplanted plants were covered with humidity domes for 3-4 days and placed in a 22° C. growth chamber as before or moved to directly to the greenhouse. Domes were subsequently removed and plants reared in the greenhouse (22±5° C., 50±30% RH, 14 h light:10 dark, minimum 500 μE/m^2 s^1 natural+supplemental light) at least 1 day prior to testing for the ability of AAD-12 (v1) (plant optimized gene) to provide phenoxy auxin herbicide resistance.
T1 plants were then randomly assigned to various rates of 2,4-D. For Arabidopsis, 50 g ae/ha 2,4-D is an effective dose to distinguish sensitive plants from ones with meaningful levels of resistance. Elevated rates were also applied to determine relative levels of resistance (50, 200, 800, or 3200 g ac/ha). Tables 10 and 11 show comparisons drawn to an aryloxyalkanoate herbicide resistance gene (AAD-1 (v3)) previously described in PCT/US2005/014737.
All auxin herbicide applications were made using the DeVilbiss sprayer as described above to apply 703 L/ha spray volume (0.4 ml solution/3-inch pot) or applied by track sprayer in a 187 L/ha spray volume. 2,4-D used was either technical grade (Sigma, St. Louis, Mo.) dissolved in DMSO and diluted in water (<1% DMSO final concentration) or the commercial dimethylamine salt formulation (456 g ac/L, NuFarm, St Joseph, Mo.). Dichlorprop used was commercial grade formulated as potassium salt of R-dichlorprop (600 g ai/L, AH Marks). As herbicide rates increased beyond 800 g ae/ha, the pH of the spray solution became exceedingly acidic, burning the leaves of young, tender Arabidopsis plants and complicating evaluation of the primary effects of the herbicides. It became standard practice to apply these high rates of herbicides in 200 mM HEPES buffer, pH 7.5.
The first Arabidopsis transformations were conducted using AAD-12 (v1) (plant optimized gene). T1 transformants were first selected from the background of untransformed seed using a glufosinate selection scheme. Over 300,000 T1 seed were screened and 316 glufosinate resistant plants were identified (PAT gene), equating to a transformation/selection frequency of 0.10% which lies in the normal range of selection frequency of constructs where PAT+Liberty are used for selection. T1 plants selected above were subsequently transplanted to individual pots and sprayed with various rates of commercial aryloxyalkanoate herbicides. Table 11 compares the response of AAD-12 (v1) and control genes to impart 2,4-D resistance to Arabidopsis T1 transformants. Response is presented in terms of % visual injury 2 WAT. […] Since each T1 is an independent transformation event, one can expect significant variation of individual T1 responses within a given rate. An arithmetic mean and standard deviation is presented for each treatment. The range in individual response is also indicated in the last column for each rate and transformation. PAT/Cry1F-transformed Arabidopsis served as an auxin-sensitive transformed control. The AAD-12 (v1) gene imparted herbicide resistance to individual T1 Arabidopsis plants. Within a given treatment, the level of plant response varied greatly and can be attributed to the fact each plant represents an independent transformation event. Of important note, at each 2,4-D rate tested, there were individuals that were unaffected while some were severely affected. […]

KY160 control tobacco = experiment: Elevated 2,4-D DMA rates in greenhouse tobacco, sensitive control; format: in vivo, Nicotiana tabacum
Excerpt: T1 AAD-12 (v1) plants from an event segregating 3R:1S when selected with 560 g ai/ha Liberty using the same protocol as previously described. T1 AAD-1 (v3) seed was also planted for transformed tobacco controls (see PCT/US2005/014737). Untransformed KY160 was served as the sensitive control. Plants were sprayed using a track sprayer set to 187 L/ha at 140, 560, 2240, 8960, and 35840 g ae/ha 2,4-D DMA and rated 3 and 14 DAT.

[2] = tested on: AAD-12 (v1) event pDAB4101[20] T1 rice; experiment: Field tolerance of rice, AAD-12 event; format: in vivo, Oryza sativa; details: for visual injury: 7 or 15DAT; for % Visual injury 7DAT / % Visual injury 15DAT: AAD-12 event pDAB4101[20]
Experimental: (§1) A field level tolerance trial was conducted with AAD-12 (v1) event pDAB4101[20] and one wild-type rice (Clearfield 131) at Wayside, Miss. (a non-transgenic imidazolinone-resistant variety). The experimental design was a randomized complete block design with a single replication. […] Within each herbicide treatment, two rows of T1 generation pDAB4101[20] and two rows of Clearfield rice were planted using a small plot drill with 8-inch row spacing. The pDAB4101[20] rice contained the AHAS gene as a selectable marker for the AAD-12(v1) gene. Imazethapyr was applied at the one leaf stage as selection agent to remove any AAD-12 (v1) null plants from the plots. Herbicide treatments were applied when the rice reached the 2 leaf stage using compressed air backpack sprayer delivering 187 L/ha carrier volume at 130-200 kpa pressure. […]

[3] = tested on: wild-type rice (Clearfield 131); experiment: Field tolerance of rice, wild-type; format: in vivo, Oryza sativa; details: for % Visual injury 7DAT / % Visual injury 15DAT: Wild-type Clearfield
Experimental: as §1

[4] = 50 g ae/ha 2,4-D postemergence, 2 WAT
[5] = 200 g ae/ha 2,4-D postemergence, 2 WAT
[6] = 800 g ae/ha 2,4-D postemergence, 2 WAT
[7] = 3200 g ae/ha 2,4-D postemergence, 2 WAT
[8] = 50 g ae/ha R-dichlorprop postemergence
[9] = 200 g ae/ha R-dichlorprop postemergence
[10] = 800 g ae/ha R-dichlorprop postemergence
[11] = 3200 g ae/ha R-dichlorprop postemergence

Structure (SMILES): O=C(O)COc1ccc(Cl)cc1Cl [2,4-D, 2,4-dichlorophenoxyacetic acid]
- % Injury 20-40% (number of individuals) [1, 4]: 1
- % Injury <20% (number of individuals) [1, 4]: 4
- % Injury >40% (number of individuals) [1, 4]: 5
- % Injury Ave [1, 4]: 31%
- % Injury 20-40% (number of individuals) [1, 5]: 0
- % Injury <20% (number of individuals) [1, 5]: 0
- % Injury >40% (number of individuals) [1, 5]: 10
- % Injury Ave [1, 5]: 70%
- % Injury 20-40% (number of individuals) [1, 6]: 0
- % Injury <20% (number of individuals) [1, 6]: 0
- % Injury >40% (number of individuals) [1, 6]: 10
- % Injury Ave [1, 6]: 81%
- % Injury 20-40% (number of individuals) [1, 7]: 0
- % Injury <20% (number of individuals) [1, 7]: 0
- % Injury >40% (number of individuals) [1, 7]: 10
- % Injury Ave [1, 7]: 91%
- Average % injury 14 DAT (KY160 control tobacco; 2240 g ae/ha 2,4-D): 95%
- Average % injury 14 DAT (KY160 control tobacco; 8960 g ae/ha 2,4-D): 99%
- Average % injury 14 DAT (KY160 control tobacco; 35840 g ae/ha 2,4-D): 100%
- visual injury ([2]; 2,4-D at 2240 g ae/ha): no injury
- % Visual injury 7DAT ([2]; 2240 GM AE/HA): 0%
- % Visual injury 15DAT ([2]; 2240 GM AE/HA): 0%
- visual injury ([3]; 2,4-D at 2240 g ae/ha, 7DAT): 30%
- visual injury ([3]; 2,4-D at 2240 g ae/ha, 15DAT): 35%
- % Visual injury 7DAT ([3]; 2240 GM AE/HA): 15%
- % Visual injury 15DAT ([3]; 2240 GM AE/HA): 35%

Structure (SMILES): C[C@@H](Oc1ccc(Cl)cc1Cl)C(=O)O [(R)-dichlorprop, R-2,4-dichlorophenoxypropionic acid]
- % Injury 20-40% (number of individuals) [1, 8]: 10
- % Injury <20% (number of individuals) [1, 8]: 0
- % Injury >40% (number of individuals) [1, 8]: 0
- % Injury Ave [1, 8]: 27%
- % Injury 20-40% (number of individuals) [1, 9]: 0
- % Injury <20% (number of individuals) [1, 9]: 0
- % Injury >40% (number of individuals) [1, 9]: 10
- % Injury Ave [1, 9]: 69%
- % Injury 20-40% (number of individuals) [1, 10]: 0
- % Injury <20% (number of individuals) [1, 10]: 0
- % Injury >40% (number of individuals) [1, 10]: 10
- % Injury Ave [1, 10]: 83%
- % Injury 20-40% (number of individuals) [1, 11]: 0
- % Injury <20% (number of individuals) [1, 11]: 0
- % Injury >40% (number of individuals) [1, 11]: 10
- % Injury Ave [1, 11]: 90%

Structure (SMILES): O=C(O)COc1nc(Cl)c(Cl)cc1Cl [triclopyr]
- visual injury ([2]; 2× rate of triclopyr (560 g ae/ha)): no injury
- % Visual injury 7DAT ([2]; 840 GM AE/HA): 0%
- % Visual injury 15DAT ([2]; 840 GM AE/HA): 0%
- visual injury ([3]; 2× rate of triclopyr (560 g ae/ha), 7DAT): 15%
- visual injury ([3]; 2× rate of triclopyr (560 g ae/ha), 15DAT): 25%
- % Visual injury 7DAT ([3]; 840 GM AE/HA): 30%
- % Visual injury 15DAT ([3]; 840 GM AE/HA): 25%
